Reference: patent publication US8269000B2, “Substituted pyrimidine and triazine compounds” (Gruenenthal GmbH, priority 2008, dated 2012)

target: T1, rat B1R (Rattus norvegicus, UniProt P97583); test: FLIPR Ca2+ functional study on bradykinin receptor 1 (rB1R CHO K1 cells); type: cell-based; conditions: CHO-K1, % inhibition rat B1R at 10 μM, read-out: % inh. (rat B1R) 10 μM
T1 construct: expressed in transfected cells; host or cells: CHO K1 cells
T1 sequence (P97583 1-337): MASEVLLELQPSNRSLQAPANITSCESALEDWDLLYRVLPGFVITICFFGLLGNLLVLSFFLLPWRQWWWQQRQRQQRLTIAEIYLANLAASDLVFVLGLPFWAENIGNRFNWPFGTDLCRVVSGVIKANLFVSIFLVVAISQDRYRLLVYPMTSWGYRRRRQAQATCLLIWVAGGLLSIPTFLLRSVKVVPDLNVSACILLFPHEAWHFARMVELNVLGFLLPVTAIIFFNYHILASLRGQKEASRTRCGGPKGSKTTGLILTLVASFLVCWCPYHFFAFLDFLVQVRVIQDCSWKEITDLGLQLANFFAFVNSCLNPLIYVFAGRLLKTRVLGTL
Method in brief: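 Antagonism was calculated as % of maximal inhibition of the Ca2+ rise triggered by agonist at EC80 (Lys-Des-Arg9-bradykinin for hB1R, Des-Arg9-bradykinin for rB1R), added 10-20 min after test compound (10 μM or serial dilutions for IC50) to Fluo-4-loaded transfected CHO K1 cells on FLIPR. Duplicates or triplicates, ≥2 independent runs.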

| Compound | inhibition at 10 µM [%] |
| --- | --- |
| COc1cc(C)c(S(=O)(=O)N2CCCCC2COc2nccc(N(C)CCN3CCC(O)(c4cccnc4)CC3)n2)c(C)c1 (stereo not shown) [G_CC-106, 1-[2-[[2-[[1-[(4-methoxy-2,6-dimethyl-phenyl)sulfonyl]-piperidin-2-yl]-methoxy]-pyrimidin-4-yl]-methyl-amino]ethyl]-4-pyridin-3-yl-piperidin-4-ol] | 95 |
| COc1cc(C)c(S(=O)(=O)N(C)C(COc2nccc(N3[C@@H]4CC[C@H]3CC(Oc3cccnc3)C4)n2)c2ccccc2)c(C)c1 (stereo partly drawn) [G_CC-107, 4-methoxy-N,2,6-trimethyl-N-[1-phenyl-2-[4-[(1S,5R)-3-pyridin-3-yloxy-8-azabicyclo[3.2.1]octan-8-yl]-pyrimidin-2-yl]oxy-ethyl]-benzenesulfonic acid amide] | 94 |
| COc1cc(C)c(S(=O)(=O)N(C)C(COc2nccc(N3CCC(CCCN4CCCC4)(c4cccnc4)CC3)n2)c2ccccc2)c(C)c1 (stereo not shown) [G_CC-108, 4-methoxy-N,2,6-trimethyl-N-[1-phenyl-2-[4-[4-pyridin-3-yl-4-(3-pyrrolidin-1-yl-propyl)-piperidin-1-yl]-pyrimidin-2-yl]oxy-ethyl]-benzenesulfonic acid amide] | 102 |
| COc1cc(C)c(S(=O)(=O)N2CCC[C@H]2COc2nccc(N3CCn4cc(CN5CCCCC5)nc4C3)n2)c(C)c1 [G_CC-109, 7-[2-[[(2S)-1-[(4-methoxy-2,6-dimethyl-phenyl)sulfonyl]-pyrrolidin-2-yl]-methoxy]-pyrimidin-4-yl]-2-(piperidin-1-yl-methyl)-5,6,7,8-tetrahydro-imidazo[1,2-a]pyrazine] | 98 |
| COc1cc(C)c(S(=O)(=O)N2CCCCC2COc2nccc(N3CCC(O)(c4ccncc4)CC3)n2)c(C)c1 (stereo not shown) [G_CC-111, 1-[2-[[1-[(4-methoxy-2,6-dimethyl-phenyl)sulfonyl]-piperidin-2-yl]-methoxy]-pyrimidin-4-yl]-4-pyridin-4-yl-piperidin-4-ol] | 90 |
| COc1cc(C)c(S(=O)(=O)N(C)C(COc2nccc(N3CCC(O)(c4ccncc4)CC3)n2)c2ccccc2)c(C)c1 (stereo not shown) [G_CC-112, N-[2-[4-(4-hydroxy-4-pyridin-4-yl-piperidin-1-yl)-pyrimidin-2-yl]oxy-1-phenyl-ethyl]-4-methoxy-N,2,6-trimethyl-benzenesulfonic acid amide] | 88 |
| COc1cc(C)c(S(=O)(=O)N2CCCCC2COc2nccc(N3CCC(c4ccccc4)(N(C)C)CC3)n2)c(C)c1 (stereo not shown) [G_CC-113, [1-[2-[[1-[(4-methoxy-2,6-dimethyl-phenyl)sulfonyl]-piperidin-2-yl]-methoxy]-pyrimidin-4-yl]-4-phenyl-piperidin-4-yl]-dimethyl-amine] | 79 |
| COc1cc(C)c(S(=O)(=O)N2CCCC(Oc3nccc(N4CCC(c5ccccc5)(N5CCCC5)CC4)n3)C2)c(C)c1 (stereo not shown) [G_CC-114, 2-[1-[(4-methoxy-2,6-dimethyl-phenyl)sulfonyl]-piperidin-3-yl]oxy-4-(4-phenyl-4-pyrrolidin-1-yl-piperidin-1-yl)-pyrimidine] | 54 |
| COc1cc(C)c(S(=O)(=O)N2CCC[C@H]2COc2nccc(N3CCC(c4ccccc4)(N4CCCC4)CC3)n2)c(C)c1 [G_CC-115, 2-[[(2S)-1-[(4-methoxy-2,6-dimethyl-phenyl)sulfonyl]-pyrrolidin-2-yl]-methoxy]-4-(4-phenyl-4-pyrrolidin-1-yl-piperidin-1-yl)-pyrimidine] | 81 |
| COc1cc(C)c(S(=O)(=O)N(C)CCOc2nccc(N3CCC(c4ccccc4)(N4CCCC4)CC3)n2)c(C)c1 [G_CC-116, 4-methoxy-N,2,6-trimethyl-N-[2-[4-(4-phenyl-4-pyrrolidin-1-yl-piperidin-1-yl)-pyrimidin-2-yl]oxy-ethyl]benzenesulfonic acid amide] | 64 |
| COc1cc(C)c(S(=O)(=O)N(C)CCOc2nccc(N3CCC(c4ccccc4)(N(C)C)CC3)n2)c(C)c1 [G_CC-117, N-[2-[4-(4-dimethylamino-4-phenyl-piperidin-1-yl)-pyrimidin-2-yl]oxy-ethyl]-4-methoxy-N,2,6-trimethyl-benzenesulfonic acid amide] | 56 |
| COc1cc(C)c(S(=O)(=O)N(C)CCOc2nccc(N3CCC(c4cccs4)(N(C)C)CC3)n2)c(C)c1 [G_CC-118, N-[2-[4-(4-dimethylamino-4-thiophen-2-yl-piperidin-1-yl)-pyrimidin-2-yl]oxy-ethyl]-4-methoxy-N,2,6-trimethyl-benzenesulfonic acid amide] | 86 |
| COc1cc(C)c(S(=O)(=O)N2c3ccccc3C[C@H]2COc2nccc(N3CCC(c4cccs4)(N(C)C)CC3)n2)c(C)c1 [G_CC-125, [1-[2-[[(2S)-1-[(4-methoxy-2,6-dimethyl-phenyl)sulfonyl]-2,3-dihydro-1H-indol-2-yl]-methoxy]-pyrimidin-4-yl]-4-thiophen-2-yl-piperidin-4-yl]-dimethyl-amine] | 58 |

Results, then the molecule that gave them:

| inhibition at 10 µM [%] | Compound |
| --- | --- |
| 79 | COc1cc(C)c(S(=O)(=O)N(C)CCOc2nccc(N(C)CCN3CCC(c4ccccc4)(N4CCCC4)CC3)n2)c(C)c1 [G_CC-119, 4-methoxy-N,2,6-trimethyl-N-[2-[4-[methyl-[2-(4-phenyl-4-pyrrolidin-1-yl-piperidin-1-yl)-ethyl]-amino]-pyrimidin-2-yl]oxy-ethyl]benzenesulfonic acid amide] |
| 86 | CCCCC1(N(C)C)CCN(CCN(C)c2ccnc(OCCN(C)S(=O)(=O)c3c(C)cc(OC)cc3C)n2)CC1 [G_CC-120, N-[2-[4-[2-(4-butyl-4-dimethylamino-piperidin-1-yl)-ethyl-methyl-amino]-pyrimidin-2-yl]oxy-ethyl]-4-methoxy-N,2,6-trimethyl-benzenesulfonic acid amide] |
| 75 | COc1cc(C)c(S(=O)(=O)N2CCCCC2COc2nccc(N3CCC(c4ccccc4)(N4CCCC4)CC3)n2)c(C)c1 (stereo not shown) [G_CC-121, 2-[[1-[(4-methoxy-2,6-dimethyl-phenyl)sulfonyl]-piperidin-2-yl]-methoxy]-4-(4-phenyl-4-pyrrolidin-1-yl-piperidin-1-yl)-pyrimidine] |
| 51 | COc1cc(C)c(S(=O)(=O)N2CC(Oc3nccc(N4CCC(c5ccccc5)(N5CCCC5)CC4)n3)C2)c(C)c1 [G_CC-122, 2-[1-[(4-methoxy-2,6-dimethyl-phenyl)sulfonyl]-azetidin-3-yl]oxy-4-(4-phenyl-4-pyrrolidin-1-yl-piperidin-1-yl)-pyrimidine] |
| 81 | COc1cc(C)c(S(=O)(=O)N2CC(Oc3nccc(N(C)CCN4CCC(c5ccccc5)(N(C)C)CC4)n3)C2)c(C)c1 [G_CC-123, 2-(4-dimethylamino-4-phenyl-piperidin-1-yl)-ethyl-[2-[1-[(4-methoxy-2,6-dimethyl-phenyl)sulfonyl]-azetidin-3-yl]oxy-pyrimidin-4-yl]-methyl-amine] |
| 57 | COc1cc(C)c(S(=O)(=O)N2CC(Oc3nccc(N(C)CCN4CCC(c5ccccc5)(N5CCCC5)CC4)n3)C2)c(C)c1 [G_CC-124, [2-[1-[(4-methoxy-2,6-dimethyl-phenyl)sulfonyl]-azetidin-3-yl]oxy-pyrimidin-4-yl]-methyl-[2-(4-phenyl-4-pyrrolidin-1-yl-piperidin-1-yl)-ethyl]amine] |
| 77 | COc1cc(C)c(S(=O)(=O)N2CC(Oc3nccc(N(C)CCCN4CCC(c5ccccc5)(N(C)C)CC4)n3)C2)c(C)c1 [G_CC-126, 3-(4-dimethylamino-4-phenyl-piperidin-1-yl)-propyl-[2-[1-[(4-methoxy-2,6-dimethyl-phenyl)sulfonyl]-azetidin-3-yl]oxy-pyrimidin-4-yl]-methyl-amine] |
| 54 | COc1cc(C)c(S(=O)(=O)N2CC(Oc3nccc(N4CCN(CCCN(C)C)CC4)n3)C2)c(C)c1 [G_CC-127, 3-[4-[2-[1-[(4-methoxy-2,6-dimethyl-phenyl)sulfonyl]-azetidin-3-yl]oxy-pyrimidin-4-yl]-piperazin-1-yl]-propyl-dimethyl-amine] |
| 57 | COc1cc(C)c(S(=O)(=O)N2CC(Oc3nccc(N4CCC(O)(c5cccnc5)CC4)n3)C2)c(C)c1 [G_CC-128, 1-[2-[1-[(4-methoxy-2,6-dimethyl-phenyl)sulfonyl]-azetidin-3-yl]oxy-pyrimidin-4-yl]-4-pyridin-3-yl-piperidin-4-ol] |
| 73 | COc1cc(C)c(S(=O)(=O)N2CC(Oc3nccc(N4CCC(CCN5CCCCC5)CC4)n3)C2)c(C)c1 [G_CC-129, 2-[1-[(4-methoxy-2,6-dimethyl-phenyl)sulfonyl]-azetidin-3-yl]oxy-4-[4-(2-piperidin-1-yl-ethyl)-piperidin-1-yl]-pyrimidine] |
| 61 | COc1cc(C)c(S(=O)(=O)N2c3ccccc3C[C@H]2COc2nccc(N3CC4CC3CN4Cc3ccc(F)cc3)n2)c(C)c1 (stereo partly drawn) [G_CC-130, (2S)-2-[[4-[2-[(4-fluorophenyl)-methyl]-2,5-diazabicyclo[2.2.1]heptan-5-yl]-pyrimidin-2-yl]oxy-methyl]-1-[(4-methoxy-2,6-dimethyl-phenyl)sulfonyl]-2,3-dihydro-1H-indole] |
| 88 | COc1cc(C)c(S(=O)(=O)N2CCCCC2COc2nccc(N3CCC(C)(N4CCOCC4)CC3)n2)c(C)c1 (stereo not shown) [G_CC-131, 4-[1-[2-[[1-[(4-methoxy-2,6-dimethyl-phenyl)sulfonyl]-piperidin-2-yl]-methoxy]-pyrimidin-4-yl]-4-methyl-piperidin-4-yl]-morpholine] |
